From ChEMBL document CHEMBL1201862, “PubChem BioAssay data set” (2004)
Calls of active or inactive are those of the source.

What was measured:
[1] = target: T1, RNA-binding protein pos-1 (Caenorhabditis elegans, UniProt G5EF15); test: disruptors of C. elegans POS-1 RNA interaction – biochemical, fluorescence polarization, dose response (AID 1964);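 further: purified POS-1 fused to maltose binding protein made in E. coli; potency of compounds blocking POS-1 binding to fluorescent RNA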
T1 sequence (G5EF15 whole entry): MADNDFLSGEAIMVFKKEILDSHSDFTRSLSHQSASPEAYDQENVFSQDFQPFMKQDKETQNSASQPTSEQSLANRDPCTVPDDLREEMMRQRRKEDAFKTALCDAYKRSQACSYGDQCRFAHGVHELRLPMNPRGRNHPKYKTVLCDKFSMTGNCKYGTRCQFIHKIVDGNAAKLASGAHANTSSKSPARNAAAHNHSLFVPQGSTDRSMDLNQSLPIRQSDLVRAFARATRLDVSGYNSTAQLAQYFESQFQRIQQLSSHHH

[2] = target: T2, Zinc finger protein mex-5 (Caenorhabditis elegans, UniProt Q9XUB2); test: potency of MEX-5 RNA-binding blockers – biochemical, C. elegans, fluorescence polarization, dose response (AID 1960)
T2 sequence (Q9XUB2 whole entry): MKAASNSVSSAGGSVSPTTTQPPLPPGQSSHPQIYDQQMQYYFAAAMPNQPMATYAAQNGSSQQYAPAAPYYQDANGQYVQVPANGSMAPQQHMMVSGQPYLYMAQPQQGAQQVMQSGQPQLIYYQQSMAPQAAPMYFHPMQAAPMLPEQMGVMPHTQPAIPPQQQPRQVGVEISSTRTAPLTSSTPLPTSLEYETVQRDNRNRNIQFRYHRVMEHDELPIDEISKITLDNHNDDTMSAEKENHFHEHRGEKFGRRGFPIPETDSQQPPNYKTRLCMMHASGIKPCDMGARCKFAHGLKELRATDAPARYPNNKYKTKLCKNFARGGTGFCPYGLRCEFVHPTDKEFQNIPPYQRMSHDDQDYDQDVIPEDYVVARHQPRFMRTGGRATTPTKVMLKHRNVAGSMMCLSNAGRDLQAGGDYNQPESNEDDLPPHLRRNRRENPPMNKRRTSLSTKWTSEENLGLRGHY

[3] = target: T3, Ubiquitin-conjugating enzyme E2 N (Homo sapiens, UniProt P61088); type: functional;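 further: Dose-response confirmation in a TR-FRET assay detecting UBC13-driven polyubiquitin chain formation, inhibition measured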
T3 sequence (P61088 whole entry): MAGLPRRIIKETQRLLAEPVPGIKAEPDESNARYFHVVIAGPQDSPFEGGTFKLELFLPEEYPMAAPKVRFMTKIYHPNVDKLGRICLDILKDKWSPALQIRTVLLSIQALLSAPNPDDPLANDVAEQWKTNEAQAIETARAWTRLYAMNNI

[4] = target: Beta-galactosidase (Escherichia coli, UniProt Q8VNN2); test: detection-enzyme interference by beta-gal modulators – biochemical, E. coli enzyme, set 3, artefact control for CCR6 antagonist project, dose response (AID 504712); type: functional
[5] = target: T4, Short transient receptor potential channel 4 (Mus musculus, UniProt Q9QUQ5); test: calcium entry via TRPC4 opening agents – cell-based, HEK293 TRPC4/mu-opioid, Fluo-4 calcium, dose response (AID 434937); type: functional
T4 sequence (Q9QUQ5 whole entry): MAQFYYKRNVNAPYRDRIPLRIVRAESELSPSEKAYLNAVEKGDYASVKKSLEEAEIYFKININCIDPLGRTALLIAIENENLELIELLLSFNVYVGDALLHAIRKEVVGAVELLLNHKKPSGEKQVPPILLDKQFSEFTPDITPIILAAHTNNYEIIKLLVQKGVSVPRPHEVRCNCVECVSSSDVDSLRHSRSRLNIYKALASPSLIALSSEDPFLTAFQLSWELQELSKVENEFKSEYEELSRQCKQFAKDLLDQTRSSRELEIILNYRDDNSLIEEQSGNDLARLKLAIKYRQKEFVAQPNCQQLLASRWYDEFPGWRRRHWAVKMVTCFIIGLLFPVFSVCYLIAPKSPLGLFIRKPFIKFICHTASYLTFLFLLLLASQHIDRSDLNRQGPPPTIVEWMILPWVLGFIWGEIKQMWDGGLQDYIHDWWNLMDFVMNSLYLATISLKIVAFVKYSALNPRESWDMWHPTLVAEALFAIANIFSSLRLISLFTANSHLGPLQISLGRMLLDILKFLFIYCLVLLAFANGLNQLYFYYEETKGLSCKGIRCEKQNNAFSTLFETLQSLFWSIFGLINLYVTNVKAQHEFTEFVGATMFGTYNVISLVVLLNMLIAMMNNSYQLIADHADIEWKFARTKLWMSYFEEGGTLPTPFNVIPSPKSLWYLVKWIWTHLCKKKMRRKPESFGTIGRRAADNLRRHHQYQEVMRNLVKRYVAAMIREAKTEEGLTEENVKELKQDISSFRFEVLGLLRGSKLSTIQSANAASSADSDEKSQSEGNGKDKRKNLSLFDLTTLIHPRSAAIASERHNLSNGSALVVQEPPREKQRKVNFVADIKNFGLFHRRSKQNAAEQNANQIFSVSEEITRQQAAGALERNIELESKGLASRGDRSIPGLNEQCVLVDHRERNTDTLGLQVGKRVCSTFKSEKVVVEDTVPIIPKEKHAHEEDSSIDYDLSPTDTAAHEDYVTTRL

[6] = target: Apelin receptor (Homo sapiens, UniProt P35414); test: apelin receptor antagonists, arrestin read-out – cell-based, luminescent, enzyme-fragment complementation, selectivity assay for CCR6 antagonist project, SAR follow-up (AID 588359); type: functional
[7] = target: Delta-type opioid receptor (Homo sapiens, UniProt P41143); test: Counterscreen for agonists of heterodimerization of the mu 1 (OPRM1) and delta 1 (OPRD1) opioid receptors: Luminescence-based cell-based high throughput dose response assay to identify agonists of OPRD1 homodimerization. [Related pubchem assays (depositor defined):AID504326, AID504355, AID504692, AID504904, AID504905]; type: functional
[8] = target: Mu-type opioid receptor (Homo sapiens, UniProt P35372); test: Counterscreen for agonists of heterodimerization of the mu 1 (OPRM1) and delta 1 (OPRD1) opioid receptors: Luminescence-based cell-based high throughput dose response assay to identify agonists of OPRM1 homodimerization.; type: functional;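 further: U2OS cells expressing OPRM1 and beta-arrestin as split beta-galactosidase partners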
[9] = target: 5-hydroxytryptamine receptor 5A (Homo sapiens, UniProt P47898); test: Counterscreen for agonists of OPRM1-OPRD1 heterodimerization: luminescence-based cell-based high throughput dose response assay to identify agonists of 5-hydroxytryptamine (serotonin) 5A receptor (HTR5A). [Related pubchem assays (depositor defined):AID504326, AID504355, AID504692, AID504904, AID504905]; type: functional
[10] = target: Luciferin 4-monooxygenase (Photinus pyralis, UniProt P08659); test: inhibition of purified Photinus pyralis luciferase – biochemical, luminescence, dose response (AID 1891)
[11] = Luminescence Cell-Based Dose Confirmation HTS to Identify Inhibitors of Platelet Dense Granule Release. [Related pubchem assays: 1663 (Primary HTS), 1678 (Summary of Project)]; type: functional
[12] = tested on: HeLa; test: ATP-based viability loss in HeLa cells – cell-based, CellTiter-Glo luminescence, cherry-pick samples, cytotoxicity control for MITF activator project, dose response (AID 540259); type: functional; settings: Homo sapiens
[13] = target: T5, Rac GTPase-activating protein 1 (Homo sapiens, UniProt Q9H0H5); test: blockers of MgcRacGAP-driven Rac1 GTP hydrolysis – biochemical, ADP Hunter fluorescence, primary and confirmatory, confirmation (AID 624330); type: functional
T5 sequence (Q9H0H5 whole entry): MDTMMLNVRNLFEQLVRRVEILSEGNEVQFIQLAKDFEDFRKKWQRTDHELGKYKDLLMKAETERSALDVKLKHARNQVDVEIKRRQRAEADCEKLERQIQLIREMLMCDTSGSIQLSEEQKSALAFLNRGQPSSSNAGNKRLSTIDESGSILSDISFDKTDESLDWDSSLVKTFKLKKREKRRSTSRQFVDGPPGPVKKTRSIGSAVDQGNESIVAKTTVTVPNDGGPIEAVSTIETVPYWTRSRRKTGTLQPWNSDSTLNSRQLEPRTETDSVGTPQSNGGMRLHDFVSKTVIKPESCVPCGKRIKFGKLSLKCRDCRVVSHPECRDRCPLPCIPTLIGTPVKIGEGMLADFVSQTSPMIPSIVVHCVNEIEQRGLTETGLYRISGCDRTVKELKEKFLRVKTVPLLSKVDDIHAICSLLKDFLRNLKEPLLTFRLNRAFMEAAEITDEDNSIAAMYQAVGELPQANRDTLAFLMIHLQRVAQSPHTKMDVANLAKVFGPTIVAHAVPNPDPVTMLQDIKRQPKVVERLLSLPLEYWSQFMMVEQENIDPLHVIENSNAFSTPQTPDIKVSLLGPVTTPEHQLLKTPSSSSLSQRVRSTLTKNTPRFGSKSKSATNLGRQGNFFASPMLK

[14] = tested on: Escherichia coli; test: microbe, parasite or virus in culture

Mu-type opioid receptor, sequence (P35372 whole entry): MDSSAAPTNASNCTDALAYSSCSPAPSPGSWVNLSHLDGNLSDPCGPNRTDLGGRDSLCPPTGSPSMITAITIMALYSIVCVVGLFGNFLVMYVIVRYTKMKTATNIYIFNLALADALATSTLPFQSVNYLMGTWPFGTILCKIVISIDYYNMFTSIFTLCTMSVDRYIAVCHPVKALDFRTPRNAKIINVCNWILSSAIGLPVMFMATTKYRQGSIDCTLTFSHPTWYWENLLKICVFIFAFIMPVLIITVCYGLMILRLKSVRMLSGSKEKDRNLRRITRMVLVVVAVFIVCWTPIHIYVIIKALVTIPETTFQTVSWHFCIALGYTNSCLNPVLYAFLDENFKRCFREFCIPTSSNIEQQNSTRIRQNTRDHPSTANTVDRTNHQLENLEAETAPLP
5-hydroxytryptamine receptor 5A, sequence (P47898 whole entry): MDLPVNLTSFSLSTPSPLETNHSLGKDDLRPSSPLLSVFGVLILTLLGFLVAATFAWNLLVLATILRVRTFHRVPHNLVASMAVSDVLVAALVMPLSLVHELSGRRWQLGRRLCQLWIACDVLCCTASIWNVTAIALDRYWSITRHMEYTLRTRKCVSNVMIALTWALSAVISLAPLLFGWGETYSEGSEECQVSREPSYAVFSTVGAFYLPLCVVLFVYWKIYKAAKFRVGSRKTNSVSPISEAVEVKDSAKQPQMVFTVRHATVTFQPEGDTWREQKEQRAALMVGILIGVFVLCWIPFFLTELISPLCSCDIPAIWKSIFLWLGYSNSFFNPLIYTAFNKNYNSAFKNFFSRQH
Luciferin 4-monooxygenase, sequence (P08659 whole entry): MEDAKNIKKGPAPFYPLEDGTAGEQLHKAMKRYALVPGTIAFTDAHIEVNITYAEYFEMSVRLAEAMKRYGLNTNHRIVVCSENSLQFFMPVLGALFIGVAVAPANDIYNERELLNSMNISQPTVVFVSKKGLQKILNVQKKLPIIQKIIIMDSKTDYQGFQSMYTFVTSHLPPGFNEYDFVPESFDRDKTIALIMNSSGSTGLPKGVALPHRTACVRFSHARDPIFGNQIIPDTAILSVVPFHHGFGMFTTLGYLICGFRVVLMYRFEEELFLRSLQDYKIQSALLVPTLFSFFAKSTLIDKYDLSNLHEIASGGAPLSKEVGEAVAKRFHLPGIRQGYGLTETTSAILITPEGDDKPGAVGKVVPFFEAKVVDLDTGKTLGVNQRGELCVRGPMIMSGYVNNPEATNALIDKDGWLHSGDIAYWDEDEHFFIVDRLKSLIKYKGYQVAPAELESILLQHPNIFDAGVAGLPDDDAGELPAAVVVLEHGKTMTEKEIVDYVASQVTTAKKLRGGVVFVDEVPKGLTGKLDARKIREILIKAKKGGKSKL
Delta-type opioid receptor, sequence (P41143 whole entry): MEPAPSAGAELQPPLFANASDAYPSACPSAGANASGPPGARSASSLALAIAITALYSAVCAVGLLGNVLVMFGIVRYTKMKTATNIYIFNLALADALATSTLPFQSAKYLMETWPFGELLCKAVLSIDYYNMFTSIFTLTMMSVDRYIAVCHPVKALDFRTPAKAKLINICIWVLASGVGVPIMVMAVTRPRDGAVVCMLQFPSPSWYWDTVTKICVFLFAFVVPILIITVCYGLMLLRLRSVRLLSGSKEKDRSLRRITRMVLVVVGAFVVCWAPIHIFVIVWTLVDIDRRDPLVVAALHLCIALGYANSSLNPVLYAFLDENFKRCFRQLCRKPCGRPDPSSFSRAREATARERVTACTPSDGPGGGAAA
Beta-galactosidase, sequence (Q8VNN2 whole entry): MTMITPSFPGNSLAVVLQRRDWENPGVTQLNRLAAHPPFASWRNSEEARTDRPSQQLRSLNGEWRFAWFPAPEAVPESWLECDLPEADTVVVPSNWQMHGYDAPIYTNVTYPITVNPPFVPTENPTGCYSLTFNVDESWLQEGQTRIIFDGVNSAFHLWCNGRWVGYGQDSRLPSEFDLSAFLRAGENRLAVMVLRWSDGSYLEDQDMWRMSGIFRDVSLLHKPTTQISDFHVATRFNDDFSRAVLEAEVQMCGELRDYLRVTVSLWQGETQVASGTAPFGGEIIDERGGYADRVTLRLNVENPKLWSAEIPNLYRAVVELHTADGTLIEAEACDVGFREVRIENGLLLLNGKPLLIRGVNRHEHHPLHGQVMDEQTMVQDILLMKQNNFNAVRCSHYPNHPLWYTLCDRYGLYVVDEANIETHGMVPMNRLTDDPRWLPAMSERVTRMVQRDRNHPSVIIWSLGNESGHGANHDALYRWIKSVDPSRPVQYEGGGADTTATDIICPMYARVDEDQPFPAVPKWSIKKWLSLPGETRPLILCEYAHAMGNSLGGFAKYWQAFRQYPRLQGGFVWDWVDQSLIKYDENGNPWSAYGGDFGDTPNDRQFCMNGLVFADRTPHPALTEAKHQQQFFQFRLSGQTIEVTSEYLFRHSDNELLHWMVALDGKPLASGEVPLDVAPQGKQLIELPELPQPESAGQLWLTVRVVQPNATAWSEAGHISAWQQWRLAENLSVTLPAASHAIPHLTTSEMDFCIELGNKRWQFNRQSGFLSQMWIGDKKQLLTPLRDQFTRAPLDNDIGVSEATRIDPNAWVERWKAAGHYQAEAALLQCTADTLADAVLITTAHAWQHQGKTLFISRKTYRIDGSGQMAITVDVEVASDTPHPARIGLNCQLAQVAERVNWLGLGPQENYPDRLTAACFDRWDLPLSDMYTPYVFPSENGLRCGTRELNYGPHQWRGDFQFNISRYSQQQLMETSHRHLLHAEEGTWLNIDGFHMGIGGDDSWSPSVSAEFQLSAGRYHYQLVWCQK
Apelin receptor, sequence (P35414 whole entry, the tested form may be a part): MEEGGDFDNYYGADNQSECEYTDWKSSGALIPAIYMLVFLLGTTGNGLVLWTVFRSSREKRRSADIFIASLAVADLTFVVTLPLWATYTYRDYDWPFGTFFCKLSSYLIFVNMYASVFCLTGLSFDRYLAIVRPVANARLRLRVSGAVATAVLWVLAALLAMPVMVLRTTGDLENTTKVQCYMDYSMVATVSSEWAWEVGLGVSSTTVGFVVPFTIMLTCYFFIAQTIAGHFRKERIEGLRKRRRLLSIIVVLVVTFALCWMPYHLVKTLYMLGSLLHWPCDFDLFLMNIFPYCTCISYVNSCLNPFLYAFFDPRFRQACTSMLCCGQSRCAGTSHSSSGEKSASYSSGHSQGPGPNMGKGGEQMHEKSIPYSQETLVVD

| Structure (SMILES) | EC50 [1] | EC50 [2] | IC50 [3] | IC50 [4] | EC50 [5] | IC50 [6] | EC50 [7] | EC50 [8] | EC50 [9] | EC50 [10] | EC50 [11] | AC50 [12] | IC50 [13] | AC50 [14] |
| --- | --- | --- | --- | --- | --- | --- | --- | --- | --- | --- | --- | --- | --- | --- |
| COCCCn1c(N)c(-c2nc3ccccc3n2C)c2nc3ccccc3nc21 | 40.4 µM (active) | 40.6 µM (active) | > 20 µM (inactive) | > 66.6 µM (inactive) | 2.66 µM (active) | 19.3 µM (active) | > 92.5 µM (inactive) | > 92.5 µM (inactive) | > 92.5 µM (inactive) | – | – | – | – | – |
| COc1ccc(/C=N/Nc2ccccn2)cc1O | – | – | – | – | – | – | – | – | – | 17.6 µM (active) | 12.5 µM (active) | 282 µM (active) | 70.2 µM (active) | 31.1 µM (active) |
